In PubChem BioAssay (NCI):
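Step 1: Grow cells in 96-well plates. Step 2: Expose to compound for 48 hours at 5 concentrations. Step 3: Interpolate endpoints linearly; if unreached, use highest concentration. GI50 is the concentration that inhibits growth by half. TGI: concentration producing complete growth inhibition.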

Columns and labels:
Experiment in all cases: DTP human tumour cell line panel, 48 h
SR leukemia = tested on: SR leukemia
RPMI-8226 leukemia = tested on: RPMI-8226 leukemia
K-562 leukemia = tested on: K-562 leukemia
SN12C renal = tested on: SN12C renal
UACC-62 melanoma = tested on: UACC-62 melanoma
NCI-H226 lung = tested on: NCI-H226 lung
HT29 colon = tested on: HT29 colon
EKVX NSCLC = tested on: EKVX NSCLC
TK-10 renal = tested on: TK-10 renal
ACHN renal = tested on: ACHN renal

SMILES | TGI (SR leukemia) [µM] | TGI (RPMI-8226 leukemia) [µM] | TGI (K-562 leukemia) [µM] | TGI (SN12C renal) [µM] | TGI (UACC-62 melanoma) [µM] | TGI (NCI-H226 lung) [µM] | TGI (HT29 colon) [µM] | TGI (EKVX NSCLC) [µM] | TGI (TK-10 renal) [µM] | TGI (ACHN renal) [µM] | GI50 (EKVX NSCLC) [µM] | GI50 (SR leukemia) [µM] | GI50 (RPMI-8226 leukemia) [µM] | GI50 (K-562 leukemia) [µM] | GI50 (SN12C renal) [µM] | GI50 (UACC-62 melanoma) [µM] | GI50 (NCI-H226 lung) [µM] | GI50 (TK-10 renal) [µM] | GI50 (HT29 colon) [µM] | GI50 (ACHN renal) [µM]
COc1ccc2c(c1)C(=O)/C(=C/c1ccccc1)C2 | > 100 | > 100 | > 100 | > 100 | > 100 | > 100 | > 100 | – | – | – | – | – | – | – | – | – | – | – | – | –
COc1cc(CN(C)N2C(=O)c3cccc4cc([N+](=O)[O-])cc(c34)C2=O)cc(OC)c1OC | > 100 | > 100 | > 100 | > 100 | > 100 | > 100 | > 100 | – | – | – | – | – | – | – | – | – | – | – | – | –
O=C(NC/C=C/CO)c1ccccc1 | – | > 100 | > 100 | > 100 | > 100 | > 100 | > 100 | > 100 | – | – | – | – | – | – | – | – | – | – | – | –
CCCCN(CCCC)C1(c2cc3ccccc3s2)CCCCC1 | 33.5 | – | 32.9 | 36.6 | 31.1 | 33.9 | 27.5 | 36.6 | 31.2 | 30.3 | – | – | – | – | – | – | – | – | – | –
C=C1CC2(C)CCC(OC(=O)C3(C)OC3C)C(C)(OC(C)=O)C2CC1=C(C)C (configuration not stated) | > 100 | > 100 | > 100 | > 100 | > 100 | – | > 100 | > 100 | > 100 | > 100 | – | – | – | – | – | – | – | – | – | –
CCC1CN2CCc3cc(OC)c(OC)cc3C2CC1CC1c2cc(OC)c(OC)cc2CCN1C(=O)C(Cc1c[nH]c2ccccc12)NC(=O)OC(C)(C)C (configuration not stated) | 13.8 | 6.15 | > 33.9 | 8.7 | 14 | 27.6 | 4.01 | 10 | 16 | 10.4 | – | – | – | – | – | – | – | – | – | –
O=C(O)CSc1nc2ccccc2[nH]1 | > 100 | – | > 100 | > 100 | > 100 | – | > 100 | > 100 | > 100 | > 100 | – | – | – | – | – | – | – | – | – | –
CC12CCC3C(CCC4(O)C=CCCC34C=O)C1(O)CC(O)C2c1ccc(=O)oc1 (configuration not stated) | – | 0.839 | 1.29 | 0.199 | 0.145 | 0.369 | 1.71 | 0.087 | – | – | – | – | – | – | – | – | – | – | – | –
O=C1CNC(=O)N1 | – | > 1120 | > 630 | > 1120 | > 1120 | > 1120 | > 1120 | > 1120 | – | – | – | – | – | – | – | – | – | – | – | –
Cc1ccc(NCCO)cc1 | > 100 | > 100 | > 100 | > 100 | > 100 | > 100 | > 100 | > 100 | > 100 | > 100 | – | – | – | – | – | – | – | – | – | –
CCOC(=O)C(CC(C)C)NC(=O)C(N)Cc1ccc(N(CCCl)CCCl)cc1 (configuration not stated) | 4.69 | > 64.7 | 41.6 | 19.7 | 9.56 | 29.5 | 11.6 | 37.5 | 25.3 | 1.81 | – | – | – | – | – | – | – | – | – | –
CCNc1nc2c(=O)n(C)c(=O)n(C)c2s1 | – | > 100 | > 100 | > 100 | > 100 | > 100 | > 100 | > 100 | > 100 | > 100 | – | – | – | – | – | – | – | – | – | –
CCOC(=O)c1csc(NC(=O)CCN2CCOCC2)n1 | > 100 | > 100 | > 100 | – | > 100 | – | > 100 | > 100 | > 100 | > 100 | – | – | – | – | – | – | – | – | – | –
Nc1ccc(N=Nc2ccc(-c3ccc(N=Nc4c(S(=O)(=O)O)cc5cc(S(=O)(=O)O)c(N=Nc6ccc([N+](=O)[O-])cc6)c(N)c5c4O)cc3)cc2)c2cc(S(=O)(=O)O)ccc12 | > 100 | > 100 | > 100 | > 100 | > 100 | > 100 | > 100 | > 100 | > 100 | > 100 | – | – | – | – | – | – | – | – | – | –
NCCSC1(O)C(=O)c2ccccc2-c2ccccc21 (configuration not stated) | 1.88 | 0.637 | 2.43 | 2.76 | 2.91 | 2.99 | 3.8 | 3.11 | 3.26 | 2.23 | – | – | – | – | – | – | – | – | – | –
COc1ccc(-c2nnc3c4ccccc4sn23)cc1 | > 100 | > 100 | > 100 | > 100 | > 100 | – | > 100 | > 100 | > 100 | > 100 | – | – | – | – | – | – | – | – | – | –
Fc1cc(C2=Nn3c(nnc3-c3cc(F)c(Cl)cc3Cl)SC2)c(Cl)cc1Cl | > 100 | 35 | > 100 | 55.7 | 38.6 | 36 | 56.3 | 90.3 | > 100 | 90.9 | 24.6 | 25.4 | 6 | 17.8 | 18.4 | 13.3 | 14.9 | 37.4 | 20.1 | 26.6
